Results reported in patent US20240067733A1, “COMPOSITIONS AND METHODS FOR TARGETING AND KILLING ALPHA-V BETA-3-POSITIVE CANCER STEM CELLS (CSCS) AND TREATING DRUG RESISTANT CANCERS” (THE REGENTS OF THE UNIVERSITY OF CALIFORNIA, priority 2017, published 2024).

Columns and labels:
PC9 ErlR cells = conditions: cells from erlotinib treated (ErlR) vs vehicle treated animal
Protocol: (§1) Cells were plated in 96-well plates, and after appropriate treatments, the cells were incubated in MTT solution (Sigma, M2128, 0.5 mg/mL in growth media) for two hours at 37° C. Then, the MTT solution was removed, and the blue crystalline precipitate in each well was dissolved in DMSO. Visible absorbance of each well at 560 nm was quantified using a microplate reader.

HCC827-ErlR = tested on: HCC827-ErlR
Protocol: as §1

[1] = tested on: PC9 (β3−) subcutaneous xenograft; experiment: PC9 subcutaneous xenograft treated with erlotinib; format: in vivo, mice; conditions: erlotinib n=1 vs vehicle n=1, measured weekly
[2] = tested on: HCC827 (β3−, GFP+, luciferase+) cells; experiment: Orthotopic lung adenocarcinoma model and CTC isolation; format: in vivo, nu/nu mice
Protocol: The pre-treatment group mice were sacrificed in week 8 for CTC analysis. […] Whole blood (0.5 mL/mouse) was collected in EDTA tubes, and PBMCs including CTCs were isolated using Lymphoprep™ ([…] Technologies, 85415) and SepMate™ ([…] Technologies, 07801) following the manufacturer's protocol. Isolated cells were washed with PBS, plated on poly-L-Lysine (Sigma, P1399) coated 8-well chamber plates, fixed with 4% PFA (VWR, AA43368-9M), and stained with DAPI (Life Technologies, D1306, 1 μg/mL in 1% BSA in PBS), LM609 (5 μg/mL in 1% BSA in PBS), and a fluorescently-labeled secondary antibody (Thermo, A21235, 1:500). The cells were analyzed utilizing Nikon Eclipse C2™ confocal microscope (Nikon). CTCs were defined as DAPI and GFP double positive cells. The numbers of αvβ3-positive and -negative CTCs per mouse were counted. After sacrificing the mice, the tumor mass volume in the lungs were also measured utilizing an OV100™ fluorescence imaging system (Olympus).

[3] = tested on: tumor-associated macrophages (TAMs); experiment: Quantification of TAMs in xenograft tumor tissues; format: in vivo, nu/nu mice; conditions: erlotinib vs vehicle, after 50 days of treatment
Protocol: TAMs were isolated from tumor tissues as previously described (4). Snap frozen tumor tissues were thawed, minced, and dissociated in HBSS containing collagenase IV (Sigma, C5138, 0.5 mg/mL), hyaluronidase (Sigma, H2654, 0.1 mg/mL), dispase 11 (Roche, 04942078001, 0.6 U/mL), and DNase IV (Millipore, 260913-10MU, 5 U/mL) at 37° C. for 15 minutes. Cell suspensions were filtered through 70 μm cell strainer and washed with PBS. Single cell suspensions (10^6 cells/100 μL in 5% BSA in PBS) were incubated with Mouse BD Fc Block™ (BD Biosciences, 553142, 1:50) for 10 minutes at 4° C. and fluorescently labeled antibodies, CD11b (eBioscience, 17-0112-81, 1:100), Ly-6G (eBioscience, 25-5931, 1:100), CD206 (BioRad, MCA2235PET), and MHC11 (BD Biosciences, 562928) for one hour at 4° C. Flow cytometry was performed on BD LSRFortessa™, and the ratio of TAMs (CD11b-positive, Ly-6G-negative), M1 (CD206-negative, MHC11-positive within TAMs), and M2 (non-M1 population within TAMs) in the tumor tissue was calculated using the flow cytometry analysis program FlowJo™ (Treestar).

HCC827 (β3−) xenograft = experiment: Erlotinib resistant lung adenocarcinoma xenograft model (HCC827 subcutaneous); conditions: erlotinib-resistant tumors vs vehicle group
Protocol: Briefly, HCC827 (5×10^6 tumor cells in 100 μl of RPMI) cells were subcutaneously injected to the right flank of female nu/nu mice (8-10 weeks old). Tumors were measured twice per week with calipers (tumor volume (mm 3)=length×width×width/2). […] Tumor tissues were divided into three pieces for snap freezing, freezing in OCT compound (VWR, 25608-930), or 10% formalin fixation (Fisher Scientific, 23-313095) for further analyses.
Immunohistochemical staining was performed on unstained FFPE slides according to the manufacturers recommendations for the VECTASTAIN Elite ABC HRP Kit (Vector Laboratories, PK-6100). An anti-integrin β3 antibody (Cell Signaling, 13166, 1:200) and a biotinylated goat anti-rabbit antibody (Vector Laboratories, BA-1000, 1:200) were used. The stained tissues were imaged on NanoZoomer Slide Scanning System™ (Hamamatsu), and the β3-positive area fraction with respect to tumor tissue was calculated utilizing ImageJ (MH) (5).

integrin αvβ3 = integrin αvβ3 (Homo sapiens, UniProt P05106+P06756); conditions: in vitro; cited from earlier work
Sequence of integrin αvβ3 (P06756 31-889 limits assumed): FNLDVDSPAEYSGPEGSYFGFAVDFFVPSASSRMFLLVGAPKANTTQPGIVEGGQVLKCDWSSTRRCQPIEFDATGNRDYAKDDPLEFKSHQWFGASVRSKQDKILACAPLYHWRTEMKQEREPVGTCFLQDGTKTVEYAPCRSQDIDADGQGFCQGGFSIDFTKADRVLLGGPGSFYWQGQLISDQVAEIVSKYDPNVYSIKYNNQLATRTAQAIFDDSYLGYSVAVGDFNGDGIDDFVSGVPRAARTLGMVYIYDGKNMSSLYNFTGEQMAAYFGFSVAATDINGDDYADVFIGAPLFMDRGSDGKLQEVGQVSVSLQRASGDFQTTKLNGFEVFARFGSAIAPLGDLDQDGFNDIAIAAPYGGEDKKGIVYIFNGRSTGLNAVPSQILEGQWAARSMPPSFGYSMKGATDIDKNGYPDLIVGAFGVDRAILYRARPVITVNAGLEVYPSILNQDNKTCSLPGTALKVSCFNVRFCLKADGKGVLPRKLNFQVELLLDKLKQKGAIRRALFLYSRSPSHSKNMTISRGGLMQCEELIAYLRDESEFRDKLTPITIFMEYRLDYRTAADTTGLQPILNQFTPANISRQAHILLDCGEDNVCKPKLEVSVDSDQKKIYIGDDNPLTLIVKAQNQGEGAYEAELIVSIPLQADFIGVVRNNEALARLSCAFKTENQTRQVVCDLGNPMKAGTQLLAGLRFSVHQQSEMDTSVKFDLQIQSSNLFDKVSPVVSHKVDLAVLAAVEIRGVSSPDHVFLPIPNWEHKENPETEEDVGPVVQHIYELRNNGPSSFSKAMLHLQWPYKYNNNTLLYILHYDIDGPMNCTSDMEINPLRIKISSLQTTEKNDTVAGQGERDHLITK
Sequence of integrin αvβ3 (P06756 891-1048 limits assumed): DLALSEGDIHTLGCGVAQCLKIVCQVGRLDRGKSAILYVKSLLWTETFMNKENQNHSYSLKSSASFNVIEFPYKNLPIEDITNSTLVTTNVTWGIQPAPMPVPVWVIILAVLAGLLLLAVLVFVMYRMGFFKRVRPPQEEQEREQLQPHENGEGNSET
Sequence of integrin αvβ3 (P05106 27-788): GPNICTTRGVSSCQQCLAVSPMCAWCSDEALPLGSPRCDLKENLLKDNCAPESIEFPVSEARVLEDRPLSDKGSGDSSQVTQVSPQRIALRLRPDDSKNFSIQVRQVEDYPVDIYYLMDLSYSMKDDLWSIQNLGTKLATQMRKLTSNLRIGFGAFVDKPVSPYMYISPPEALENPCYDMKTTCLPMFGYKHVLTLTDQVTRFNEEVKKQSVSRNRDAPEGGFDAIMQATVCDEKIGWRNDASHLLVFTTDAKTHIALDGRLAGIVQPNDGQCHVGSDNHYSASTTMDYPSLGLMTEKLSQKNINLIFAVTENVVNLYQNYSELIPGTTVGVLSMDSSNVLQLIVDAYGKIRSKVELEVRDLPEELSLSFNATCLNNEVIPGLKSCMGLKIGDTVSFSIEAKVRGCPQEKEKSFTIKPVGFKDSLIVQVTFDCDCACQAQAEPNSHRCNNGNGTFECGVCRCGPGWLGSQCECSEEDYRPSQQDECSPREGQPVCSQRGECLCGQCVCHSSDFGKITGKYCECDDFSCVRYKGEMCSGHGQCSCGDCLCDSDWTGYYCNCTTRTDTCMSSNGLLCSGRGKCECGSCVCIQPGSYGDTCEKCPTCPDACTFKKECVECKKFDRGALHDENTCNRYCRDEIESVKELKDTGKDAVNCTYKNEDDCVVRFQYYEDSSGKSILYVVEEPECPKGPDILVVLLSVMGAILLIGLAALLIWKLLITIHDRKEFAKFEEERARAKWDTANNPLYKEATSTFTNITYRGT

solid tumors = conditions: patients with solid tumors; cited from earlier work

C=CC(=O)Nc1cc(Nc2nccc(-c3cn(C)c4ccccc34)n2)c(OC)cc1N(C)CCN(C)C [osimertinib]
cell viability (MTT), sensitivity to EGFR inhibitor (PC9 ErlR cells): osimertinib resistant
cell viability, sensitivity to EGFR inhibitor (HCC827-ErlR): also resistant

C#Cc1cccc(Nc2ncnc3cc(OCCOC)c(OCCOC)cc23)c1 [erlotinib]
tumor growth [1]: gained resistance
number of CTCs ([2]; erlotinib for 30 days vs pre-treatment): sharp increase in the number of CTCs
αvβ3 status of CTCs ([2]; following erlotinib treatment): vast majority of the CTCs detected following erlotinib treatment were αvβ3 positive
number of TAMs, particularly M2 type, in tumors [3]: higher number of TAMs
expression of integrin αvβ3 in tumors (HCC827 (β3−) xenograft): enriched in the erlotinib-resistant tumors compared to the vehicle group

B1: etaracizumab: a humanized and affinity-matured form of LM609 (antibody, chains of the INN, looked up, V domains shown)
VH: QVQLVESGGGVVQPGRSLRLSCAASGFTFSSYDMSWVRQAPGKGLEWVAKVSSGGGSTYYLDTVQGRFTISRDNSKNTLYLQMNSLRAEDTAVYYCARHLHGSFASWGQGTTVTVSS
VL: EIVLTQSPATLSLSPGERATLSCQASQSISNFLHWYQQRPGQAPRLLIRYRSQSISGIPARFSGSGSGTDFTLTISSLEPEDFAVYYCQQSGSWPLTFGGGTKVEIK
antibody-dependent cell mediated cytotoxicity (ADCC) (integrin αvβ3): reported to mediate antibody-dependent cell mediated cytotoxicity (ADCC) in vitro
clinical activity (solid tumors): showed clinical activity in some patients
